Experimental data published in patent US20190337924A1, “SUBSTITUTED HYDANTOIN AND THIOHYDANTOIN DERIVATIVES AS ANDROGEN RECEPTOR ANTAGONISTS” (Janssen Pharmaceutica NV, priority 2016, published 2019).
Structures can show the parent of a compound that is named as a salt.

Experiments:
[1] = biological target: T1, wild-type Androgen Receptor (AR-wt) (Homo sapiens, UniProt P10275); assay: AR reporter assay, LNCaP-AR-wt AG (agonist mode); type: cell-based; conditions: for Emax: read-out: LNCaP-AR-wt AG MAX % Stim
T1 construct: expressed in transfected cells; host or cells: LNCaP
T1 sequence (P10275 1-920): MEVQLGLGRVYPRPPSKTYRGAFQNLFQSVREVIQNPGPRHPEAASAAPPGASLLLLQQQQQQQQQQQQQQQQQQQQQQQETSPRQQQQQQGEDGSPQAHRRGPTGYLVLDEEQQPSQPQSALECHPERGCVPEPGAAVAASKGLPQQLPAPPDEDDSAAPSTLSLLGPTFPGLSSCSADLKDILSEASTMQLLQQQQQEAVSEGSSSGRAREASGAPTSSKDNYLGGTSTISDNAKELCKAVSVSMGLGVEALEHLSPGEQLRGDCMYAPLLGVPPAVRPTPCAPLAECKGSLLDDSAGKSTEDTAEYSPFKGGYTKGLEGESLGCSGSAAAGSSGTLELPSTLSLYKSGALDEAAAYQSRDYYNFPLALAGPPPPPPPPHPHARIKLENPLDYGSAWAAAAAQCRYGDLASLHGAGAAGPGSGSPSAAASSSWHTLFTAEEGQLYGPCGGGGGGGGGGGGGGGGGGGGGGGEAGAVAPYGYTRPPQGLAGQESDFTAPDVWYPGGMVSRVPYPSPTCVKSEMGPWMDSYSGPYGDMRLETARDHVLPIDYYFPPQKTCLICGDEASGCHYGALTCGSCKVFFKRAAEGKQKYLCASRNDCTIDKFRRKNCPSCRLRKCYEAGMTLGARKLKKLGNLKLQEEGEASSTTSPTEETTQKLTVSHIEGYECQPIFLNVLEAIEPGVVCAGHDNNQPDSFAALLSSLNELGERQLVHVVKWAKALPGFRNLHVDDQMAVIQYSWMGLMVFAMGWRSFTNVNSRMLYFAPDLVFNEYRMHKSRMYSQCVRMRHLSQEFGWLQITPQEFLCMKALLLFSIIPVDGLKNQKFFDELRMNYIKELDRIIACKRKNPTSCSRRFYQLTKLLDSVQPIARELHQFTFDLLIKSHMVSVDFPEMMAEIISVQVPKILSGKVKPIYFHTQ
Excerpt: (§1) LNCaP AR (cs) and LNCaP F876L luciferase cell lines were generated by transduction of each cell line (description of cell line generation Joseph J D, Lu N, Qian J, Sensintaffar J, Shao G, Brigham D, Moon M, Maneval E C, Chen I, Darimont B, Hager J H. A clinically relevant androgen receptor mutation confers resistance to second-generation antiandrogens enzalutamide and ARN-509. Cancer Discov 2013; 3:1020-1029) with an Androgen Response Element Firefly Luciferase lentiviral construct at an MOI (multiplicity of infection) of 50 following the manufacturer's instructions (Qiagen). A stable pooled-population cell line was generated using puromycin (Life Technologies) selection at 1:10,000 v/v. The protocol below was used for both cell lines and for testing of the compounds of Formula (I) of the present invention.
(§2) LNCaP cells were grown to about 80% confluence, media removed and cells rinsed in Hank's balanced salt solution prior to separation from the plate with 0.05% Trypsin EDTA. Cells were lifted and trypsin negated in complete CSS (charcoal stripped serum) culture media. CSS was maintained on cells for 24 h prior to assay, at which time 5,000 cells/[…] were seeded in Greiner 384 well White/White Tissue Culture Treated Plates and incubated for a further 1-2 hours at 37° C., 5% CO2, prior to addition of 10 μL of 4× Test Compounds (compounds described herein) or Assay Controls (all diluted in complete media containing 10% css). A further 10 μL of 4× R-1881 Agonist Challenge (antagonist assay) or Buffer (agonist assay) was then added (all diluted in complete media containing 10% css). Agonist challenge was at 400 pM for WT assay and 600 pM for F876L assay. Plates containing cells and compounds herein were incubated for a further 20-24 hours at 37° C., 5% CO2 before addition of 40 μL/well of Steady-Glo Luciferase Assay System Reagent (Promega#E2520). After 1 h, plates were read for luminescence on a BMG Pherastar.
((Sample RLU−Ave Low Control RLU[DMSO/Buffer])/(Ave High Control RLU [1 μM R-1881]—Ave Low Control RLU[DMSO/Buffer]))*100.
(§3) EC/IC50 calculations were achieved utilizing calculated RLU data and data fitting macros. Data were fit using least-squares methods to the following formula: […]
(§4) As used herein: • pIC50 is defined as −Log10(IC50 expressed in [Molar]). • pEC50 is defined as −Log10(EC50 expressed in [Molar]). • MAX % Inh is defined as the maximum % inhibition of R1881 control response observed for a compound over the tested concentration range. • MAX % Stim is defined as the maximum % stimulation (agonist response) observed for a compound over the tested concentration range. • LNCaP-AR-wt ANT refers to the reporter assay using LNCaP cells stably transfected with the Androgen Response Element Firefly Luciferase lentiviral construct and wild-type Androgen Receptor (AR-wt) in Antagonist mode. • LNCaP-AR-wt AG refers to the reporter assay using LNCaP cells stably transfected with the Androgen Response Element Firefly Luciferase lentiviral construct and wild-type Androgen Receptor (AR-wt) in Agonist mode. • LNCaP-AR-F876L ANT refers to the reporter assay using LNCaP cells stably transfected with the Androgen Response Element Firefly Luciferase lentiviral construct and F876L mutant Androgen Receptor (AR-F876L) in Antagonist mode. • LNCaP-AR-F876L AG refers to the reporter assay using LNCaP cells stably transfected with the Androgen Response Element Firefly Luciferase lentiviral construct and F876L mutant Androgen Receptor (AR-F876L) in Agonist mode.

[2] = biological target: T1, wild-type Androgen Receptor (AR-wt); assay: AR reporter assay, LNCaP-AR-wt ANT (antagonist mode); type: cell-based; conditions: for Emax: read-out: LNCaP-AR-wt ANT MAX % Inh
Excerpt: as §1, §2
Agonist challenge: R-1881 (Metribolone)—Agonist
Antagonist control (low control): 5-(5-(4-((1-Methylpiperidin-4-yl)oxy)phenyl)-8-oxo-6-thioxo-5,7-diazaspiro[3.4]octan-7-yl)-3-(trifluoromethyl)picolinonitrile (WO 2011/103202, EXAMPLE 19, Compound 129, CAS #1332390-06-3).
(1−(Sample RLU−Ave Low Control RLU[10 μM Antagonist Control])/(Ave High Control RLU [400 pM R-1881]−Ave Low Control RLU[10 μM Antagonist Control]))*100.
as §3, §4

CC1(C)C(=O)N(c2ccc(C#N)c(C(F)(F)F)c2)C(=S)N1c1ccc(OC2CCNCC2)cc1 [Compound 1, 4-(4,4-Dimethyl-5-oxo-3-(4-(piperidin-4-yloxy)phenyl)-2-thioxoimidazolidin-1-yl)-2-(trifluoromethyl)benzonitrile]
EC50 [1]: > 15.1 µM
Emax [1]: 0.6%
IC50 [2]: 75.9 nM
Emax [2]: 106%

CN1CCC(Oc2ccc(N3C(=S)N(c4ccc(C#N)c(C(F)(F)F)c4)C(=O)C3(C)C)cc2)CC1 [Compound 2, 4-(4,4-Dimethyl-3-(4-((1-methylpiperidin-4-yl)oxy)phenyl)-5-oxo-2-thioxoimidazolidin-1-yl)-2-(trifluoromethyl)benzonitrile hydrochloride]
EC50 [1]: > 15.1 µM
Emax [1]: -0.2%
IC50 [2]: 97.7 nM
Emax [2]: 104%

CC1(C)C(=O)N(c2ccc(C#N)c(C(F)(F)F)c2)C(=S)N1c1ccc(OC2CCNCC2)nc1 [Compound 3, 4-(4,4-Dimethyl-5-oxo-3-(6-(piperidin-4-yloxy)pyridin-3-yl)-2-thioxoimidazolidin-1-yl)-2-(trifluoromethyl)benzonitrile hydrochloride]
EC50 [1]: > 15.1 µM
Emax [1]: 0.5%
IC50 [2]: 46.8 nM
Emax [2]: 103%

CN1CCC(Oc2ccc(N3C(=S)N(c4ccc(C#N)c(C(F)(F)F)c4)C(=O)C3(C)C)cn2)CC1 [Compound 4, 4-(4,4-Dimethyl-3-(6-((1-methylpiperidin-4-yl)oxy)pyridin-3-yl)-5-oxo-2-thioxoimidazolidin-1-yl)-2-(trifluoromethyl)benzonitrile hydrochloride]
EC50 [1]: > 15.1 µM
Emax [1]: 0.1%
IC50 [2]: 89.1 nM
Emax [2]: 102%

CC1(C)C(=O)N(c2ccc(C#N)c(C(F)(F)F)c2)C(=S)N1c1cnc(OC2CCNCC2)nc1 [Compound 5, 4-(4,4-Dimethyl-5-oxo-3-(2-(piperidin-4-yloxy)pyrimidin-5-yl)-2-thioxoimidazolidin-1-yl)-2-(trifluoromethyl)benzonitrile]
EC50 [1]: > 15.1 µM
Emax [1]: 0.1%
IC50 [2]: 170 nM
Emax [2]: 101%

CN1CCC(Oc2ncc(N3C(=S)N(c4ccc(C#N)c(C(F)(F)F)c4)C(=O)C3(C)C)cn2)CC1 [Compound 6, 4-(4,4-Dimethyl-3-(2-((1-methylpiperidin-4-yl)oxy)pyrimidin-5-yl)-5-oxo-2-thioxoimidazolidin-1-yl)-2-(trifluoromethyl)benzonitrile]
EC50 [1]: > 15.1 µM
Emax [1]: 0.8%
IC50 [2]: 91.2 nM
Emax [2]: 102%

CC1(C)C(=O)N(c2ccc(C#N)c(Cl)c2)C(=S)N1c1ccc(OC2CCNCC2)cc1 [Compound 7, 2-Chloro-4-(4,4-dimethyl-5-oxo-3-(4-(piperidin-4-yloxy)phenyl)-2-thioxoimidazolidin-1-yl)benzonitrile hydrochloride]
EC50 [1]: > 15.1 µM
Emax [1]: 0%
IC50 [2]: 61.7 nM
Emax [2]: 101%

CN1CCC(Oc2ccc(N3C(=S)N(c4ccc(C#N)c(Cl)c4)C(=O)C3(C)C)cc2)CC1 [Compound 8, 2-Chloro-4-(4,4-dimethyl-3-(4-((1-methylpiperidin-4-yl)oxy)phenyl)-5-oxo-2-thioxoimidazolidin-1-yl)benzonitrile hydrochloride]
EC50 [1]: > 15.1 µM
Emax [1]: 0.1%
IC50 [2]: 81.3 nM
Emax [2]: 103%

CC1(C)C(=O)N(c2ccc(C#N)c(Cl)c2)C(=S)N1c1ccc(OC2CCNCC2)nc1 [Compound 9, 2-Chloro-4-(4,4-dimethyl-5-oxo-3-(6-(piperidin-4-yloxy)pyridin-3-yl)-2-thioxoimidazolidin-1-yl)benzonitrile hydrochloride]
EC50 [1]: > 15.1 µM
Emax [1]: -0.2%
IC50 [2]: 57.5 nM
Emax [2]: 102%

CN1CCC(Oc2ccc(N3C(=S)N(c4ccc(C#N)c(Cl)c4)C(=O)C3(C)C)cn2)CC1 [Compound 10, 2-Chloro-4-(4,4-dimethyl-3-(6-((1-methylpiperidin-4-yl)oxy)pyridin-3-yl)-5-oxo-2-thioxoimidazolidin-1-yl)benzonitrile hydrochloride]
EC50 [1]: > 15.1 µM
Emax [1]: 0.1%
IC50 [2]: 63.1 nM
Emax [2]: 102%

N#Cc1ccc(N2C(=O)C3(CCC3)N(c3ccc(OC4CCNCC4)cc3)C2=S)cc1C(F)(F)F [Compound 11, 4-(8-Oxo-5-(4-(piperidin-4-yloxy)phenyl)-6-thioxo-5,7-diazaspiro[3.4]octan-7-yl)-2-(trifluoromethyl)benzonitrile]
EC50 [1]: > 15.1 µM
Emax [1]: 0.1%
IC50 [2]: 331 nM
Emax [2]: 105%

CN1CCC(Oc2ccc(N3C(=S)N(c4ccc(C#N)c(C(F)(F)F)c4)C(=O)C34CCC4)cc2)CC1 [Compound 12, 4-(5-(4-((1-Methylpiperidin-4-yl)oxy)phenyl)-8-oxo-6-thioxo-5,7-diazaspiro[3.4]octan-7-yl)-2-(trifluoromethyl)benzonitrile]
EC50 [1]: > 15.1 µM
Emax [1]: 0.4%
IC50 [2]: 324 nM
Emax [2]: 104%

N#Cc1ccc(N2C(=O)C3(CCC3)N(c3ccc(OC4CCNCC4)nc3)C2=S)cc1C(F)(F)F [Compound 13, 4-(8-Oxo-5-(6-(piperidin-4-yloxy)pyridin-3-yl)-6-thioxo-5,7-diazaspiro[3.4]octan-7-yl)-2-(trifluoromethyl)benzonitrile hydrochloride]
EC50 [1]: > 15.1 µM
Emax [1]: 0.5%
IC50 [2]: 63.1 nM
Emax [2]: 104%

CN1CCC(Oc2ccc(N3C(=S)N(c4ccc(C#N)c(C(F)(F)F)c4)C(=O)C34CCC4)cn2)CC1 [Compound 14, 4-(5-(6-((1-Methylpiperidin-4-yl)oxy)pyridin-3-yl)-8-oxo-6-thioxo-5,7-diazaspiro[3.4]octan-7-yl)-2-(trifluoromethyl)benzonitrile]
EC50 [1]: > 15.1 µM
Emax [1]: 0.2%
IC50 [2]: 89.1 nM
Emax [2]: 104%
